Measured values as given in patent US20200397728A1, “PHARMACEUTICAL FORMULATION FOR CARGLUMIC ACID” (RECORDATI S.p.A., priority 2019, published 2020).
Where two headings read alike, the source gives them in different places.

Assays:
[1] = cited from earlier work
[2] = Stability/compatibility of carglumic acid-excipient binary mixes, HPLC chromatographic purity; format: physicochemical
Protocol: Carglumic acid alone was also stored under the same conditions. […] Chromatographic purity have been tested for all the reported combinations and storage conditions. Under these chromatographic conditions the retention time (Rt) of carglumic acid is about 6.6 min. […] [table] [table]

[3] = 25° C./60% RH Closed bottles, 15 days
[4] = 25° C./60% RH Closed bottles, 30 days
[5] = 25° C./60% RH Open bottles, 7 days
[6] = 25° C./60% RH Open bottles, 15 days
[7] = 40° C./75% RH Closed bottles, 15 days
[8] = 40° C./75% RH Closed bottles, 30 days

NC(=O)N[C@@H](CCC(=O)O)C(=O)O [Carglumic Acid, Carglumic acid]
0.18%: Total impurities [2, 5]
soluble: Solubility ([1]; boiling water)
0.04%: Imp. 1 RRT 1.93 [2, 6]
0.01%: Imp. 1 RRT 1.93 [2, 3] | Imp. 5a RRT 2.34 [2, 3] | Imp. 2 RRT 2.21 [2, 4] | Imp. 5a RRT 2.34 [2, 4] | Imp. 2 RRT 2.21 [2, 5] | Imp. 2 RRT 2.21 [2, 6] | Imp. 2 RRT 2.21 [2, 7] | Imp. 5a RRT 2.34 [2, 7] | Imp. 5b RRT 2.77 [2, 7] | Imp. 2 RRT 2.21 [2, 8] | Imp. 5a RRT 2.34 [2, 8] | Imp. 2 RRT 2.21 ([2]; 60° C. Closed bottles, 1 day) | Imp. 5a RRT 2.34 ([2]; 60° C. Closed bottles, 1 day) | Imp. 2 RRT 2.21 ([2]; t = 0) | Imp. 5b RRT 2.77 ([2]; t = 0)
0.03%: Max, single unknown impurity [2, 3] | Imp. 1 RRT 1.93 [2, 4] | Max, single unknown impurity [2, 4] | Imp. 1 RRT 1.93 [2, 5] | Imp. 1 RRT 1.93 [2, 7] | Imp. 1 RRT 1.93 [2, 8] | Max, single unknown impurity [2, 8] | Imp. 1 RRT 1.93 ([2]; 60° C. Closed bottles, 1 day) | Max, single unknown impurity ([2]; t = 0)
0.10%: Total impurities ([2]; 60° C. Closed bottles, 1 day)
0.08%: Total impurities [2, 3] | Total impurities [2, 4]
0.07%: Total impurities ([2]; t = 0)
slightly soluble: Solubility ([1]; cold water)
0.05%: Max, single unknown impurity [2, 5]
0.02%: Imp. 5a RRT 2.34 [2, 5] | Max, single unknown impurity [2, 6] | Max, single unknown impurity [2, 7] | Max, single unknown impurity ([2]; 60° C. Closed bottles, 1 day) | Imp. 1 RRT 1.93 ([2]; t = 0)
0.00%: Imp. 2 RRT 2.21 [2, 3] | Imp. 5b RRT 2.77 [2, 3] | Imp. 6 RRT 1.20 [2, 3] | Imp. 5b RRT 2.77 [2, 4] | Imp. 6 RRT 1.20 [2, 4] | Imp. 5b RRT 2.77 [2, 5] | Imp. 6 RRT 1.20 [2, 5] | Imp. 5a RRT 2.34 [2, 6] | Imp. 5b RRT 2.77 [2, 6] | Imp. 6 RRT 1.20 [2, 6] | Imp. 6 RRT 1.20 [2, 7] | Imp. 5b RRT 2.77 [2, 8] | Imp. 6 RRT 1.20 [2, 8] | Imp. 5b RRT 2.77 ([2]; 60° C. Closed bottles, 1 day) | Imp. 6 RRT 1.20 ([2]; 60° C. Closed bottles, 1 day) | Imp. 5a RRT 2.34 ([2]; t = 0) | Imp. 6 RRT 1.20 ([2]; t = 0)
0.12%: Total impurities [2, 7]
practically insoluble: Solubility ([1]; organic solvents (cyclohexane, dichloromethane, ether))
0.11%: Total impurities [2, 6] | Total impurities [2, 8]
